Assay [1] has as its target T1, human TSP1 (Homo sapiens, UniProt P07996). The assay is described as follows: Interaction analysis by SPR (Biacore T200). The assay is classed as binding. Conditions: single-cycle kinetics, 25° C., KD from ka and kd. The procedure: (Test Example 2) Interaction Analysis by SPR
Interaction analysis by SPR was performed using Biacore T200 (produced by GE Healthcare).
I. Immobilization of Recombinant-hTSP1
First, 500 μM NiCl2 was injected over an NTA-Chip (produced by GE Healthcare, BR100532) at a flow rate of 5 μL/min. for 1 minute to thereby activate NTA groups. Then, an EDC/NHS mixture was injected at a flow rate of 10 μL/min. for 7 minutes to thereby activate the carboxyl groups of dextran. Recombinant-hTSP1 was injected at a flow rate of 10 μL/min. for 7 minutes to immobilize the TSP1 on the substrate surfaces with activated NTA and carboxyl groups. Ethanolamine was injected at a flow rate of 10 μL/min. for 7 minutes to thereby deactivate unreacted, activated carboxyl groups.
The immobilization buffer used was prepared by diluting 10×HBS-P+(produced by GE Healthcare, BR100671) to 1-fold and adding 5 mM CaCl2.
The reagents EDC/NHS/ethanolamine used were included in the Amine-coupling kit (BR100050) commercially available from GE Healthcare.
The measurement buffer was prepared based on the following composition profile:
The measurement was performed in the following steps.
For the purpose of equilibrating substrate surfaces, the measurement buffer was injected under the following conditions:
contact time: 60 sec., dissociation time: 120 sec., flow rate: 50 μL/min., temperature: 25° C.
The injection under the same conditions was repeated five times to ensure equilibration.
Since Biacore T200 is highly responsive to change in DMSO concentrations, DMSO solutions were sequentially injected at concentrations of 4%, 4.4%, 4.8%, 5.2%, 5.6%, and 6% to correct for DMSO effects.
The method adopted for sample measurement was a single-cycle kinetics method which is effective for samples showing low dissociative behavior. The advantage of this method is that since sample solutions at different concentration regions are injected in the same cycle, the influence between different cycles in association with low dissociation can be ignored in the analysis.
A 3-fold diluted series of sample solutions were prepared in five concentrations (100, 33, 11, 3.7 and 1.2 nM), and sequentially injected at a flow rate of 50 μL/min. for 3 minutes in the order from lowest to highest concentration. After the highest concentration of diluted solution was injected, a dissociation time of 20 to 30 minutes was spent.
Before samples were measured, the measurement buffer was injected alone under the same conditions to establish a baseline.
The analysis was conducted using the evaluation software provided with Biacore T100 and T200. A DMSO correction curve obtained by solvent correction measurements was applied for the analysis. Kinetics fitting was done on the difference data obtained by subtracting the baseline data from sample measurement data.
KD values were calculated based on the association rate constant (ka) and dissociation rate constant (kd).
Target sequence in this assay (P07996 19-1170): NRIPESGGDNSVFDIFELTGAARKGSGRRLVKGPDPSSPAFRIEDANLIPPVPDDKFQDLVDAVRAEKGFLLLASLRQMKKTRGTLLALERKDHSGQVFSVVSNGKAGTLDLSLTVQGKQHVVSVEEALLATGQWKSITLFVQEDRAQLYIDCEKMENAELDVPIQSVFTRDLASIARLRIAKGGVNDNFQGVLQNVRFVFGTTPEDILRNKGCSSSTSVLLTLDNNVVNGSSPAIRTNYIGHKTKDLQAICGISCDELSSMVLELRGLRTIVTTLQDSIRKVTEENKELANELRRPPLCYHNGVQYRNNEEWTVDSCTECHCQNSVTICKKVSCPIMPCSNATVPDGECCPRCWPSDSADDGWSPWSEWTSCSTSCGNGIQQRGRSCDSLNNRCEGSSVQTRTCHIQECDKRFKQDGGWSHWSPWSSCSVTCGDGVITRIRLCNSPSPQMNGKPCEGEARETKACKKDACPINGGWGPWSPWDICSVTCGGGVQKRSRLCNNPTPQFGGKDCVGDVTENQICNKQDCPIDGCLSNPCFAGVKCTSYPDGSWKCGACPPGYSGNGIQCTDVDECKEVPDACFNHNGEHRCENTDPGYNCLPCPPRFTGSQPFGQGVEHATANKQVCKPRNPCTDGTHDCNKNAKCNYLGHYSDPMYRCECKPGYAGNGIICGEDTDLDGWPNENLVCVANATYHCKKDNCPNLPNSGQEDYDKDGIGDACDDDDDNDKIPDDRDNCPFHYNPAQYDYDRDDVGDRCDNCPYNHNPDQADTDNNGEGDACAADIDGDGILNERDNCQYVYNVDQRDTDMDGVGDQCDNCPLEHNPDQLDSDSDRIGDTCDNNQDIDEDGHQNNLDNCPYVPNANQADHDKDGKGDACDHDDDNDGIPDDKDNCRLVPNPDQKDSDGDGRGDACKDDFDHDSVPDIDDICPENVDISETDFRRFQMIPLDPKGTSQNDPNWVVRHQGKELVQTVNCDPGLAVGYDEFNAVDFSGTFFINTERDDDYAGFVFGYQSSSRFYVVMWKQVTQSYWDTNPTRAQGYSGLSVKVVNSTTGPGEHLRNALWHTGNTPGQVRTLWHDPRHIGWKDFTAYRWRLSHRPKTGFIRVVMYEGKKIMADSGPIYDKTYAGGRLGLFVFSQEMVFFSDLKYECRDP
(Surface plasmon resonance follows binding to a sensor surface in real time, without labels.)

In a further assay the test system is C57BL/6 mice. Nature of the assay: Blood flow improvement tests (femoral artery/vein ligation and excision, laser Doppler). To be noted: after 7 days of surgery; for % change (vs. vehicle): blood flow ratio ischemia/nonischemia; for %, ischemia/nonischemia: blood flow ratio of ischemic limb to non-ischemic limb, laser Doppler. The assay is classed as in vivo. From the text: (Test Example 3) Blood Flow Improvement Tests
Seven to nine-week-old male C57BL/6 mice were purchased from Charles River Laboratories Japan Inc., and acclimated over one week by feeding with a FR-2 solid diet (produced by Funabashi Farm Co., Ltd.). The rearing facility switched between light and dark modes in a 12-hour cycle with light turning on at 7 a.m and turning off at 7 p.m. Under isofluorane inhalation anaesthesia, the left thighs of the mice were dissected, and the superficial femoral arteries and veins (from just below the deep femoral arteries to the popliteal artery and vein) were ligated and excised. After animal models were made, the test substances (Compounds 24, 28, 40 to 45, and 58) were each dissolved in a solution of 20 mM lactic acid and 5% (w/v) Lutrol, and intraperitoneally injected into mice once daily.
(Blood Flow Improvement Test 1)
Compound 24 (10 mg/kg)-treated group
(Blood Flow Improvement Test 2)
Compound 28 (10 mg/kg)-treated group
(Blood Flow Improvement Test 3)
Compound 40 (10 mg/kg)-treated group
Compound 41 (10 mg/kg)-treated group
(Blood Flow Improvement Test 4)
Compound 42 (10 mg/kg)-treated group
Compound 43 (10 mg/kg)-treated group
Compound 44 (10 mg/kg)-treated group
Compound 45 (10 mg/kg)-treated group
(Blood Flow Improvement Test 5)
Compound 58 (10 mg/kg)-treated group
Blood flows were measured in ischemic (left) and non-ischemic (right) limbs using a laser Doppler perfusion imager (LDPI; PIM III, Perimed, Inc.). Blood flow values were evaluated by the ratio of ischemic limb flow to non-ischemic limb flow.
Blood flow values from the mice were the lowest immediately after surgery and then gradually recovered. All of the test substances investigated in the animal models of this study improved blood flow recovery after surgery as compared to vehicle treatment. After 7 days of surgery, the blood flows in the test substance-treated groups were higher than in the vehicle-treated mice.

Assay [2] deals with T1, human TSP1. The assay is described as follows: Cell adhesion inhibition assay (HUVEC adhesion to TSP1-coated plate). The format is cell-based. Conditions: HUVEC adhesion to human platelet thrombospondin-coated plate, 2.5 hours, CellTiter-Glo; read-out: Cell adhesion IC50. The essentials: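 Plates coated overnight at 4 °C with 10 μg/mL human platelet TSP1 in TBS + 2 mM CaCl2, blocked with Lipidure, then preincubated 15–30 min with samples in DMEM/0.5% BSA. HUVECs (10000 cells/well) adhered for 2.5 h at 37 °C; adherent cells quantified by CellTiter-Glo luminescence and IC50 (nM) calculated.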
Target sequence in this assay (P07996 19-1170 limits assumed): as the sequence (P07996 19-1170) above
A general note: In ATP-based viability assays light output follows the ATP content of the culture.

SMILES strings stand for the structures. Positions of bridges follow the written chain, without caps; N, C: chain ends. Non-standard residues stand in square brackets, D forms with d. Residues, ends and D or L forms follow the SMILES beside them. 2Nal = N[C@@H](Cc1ccc2ccccc2c1)C(=O)O; Nle = CCCC[C@H](N)C(=O)O

Broadly, the Kd is the concentration at which binding is half-saturated. What is called IC50 is the midpoint of a concentration-inhibition curve.

On human TSP1 [1], `CCCC[C@@H]1NC(=O)[C@H](Cc2c[nH]c3ccccc23)NC(=O)[C@H](CC(=O)O)NC(=O)[C@H](CCCCN)NC(=O)CNC(=O)[C@H](CO)NC(=O)[C@H]([C@@H](C)CC)NC(=O)[C@H](Cc2ccc3ccccc3c2)NC(=O)CSC[C@@H](C(N)=O)NC(=O)[C@H](C(C)C)NC(=O)[C@H](Cc2c[nH]c3ccccc23)NC(=O)[C@H](CCCNC(=N)N)NC1=O` [Compound 58] ({CH2CO}-[2Nal]ISGKDW[Nle]RWVC-NH2; thioether N-12) displayed a Kd of 91 pM. In the assay on C57BL/6 mice, the “% change (vs. vehicle)” value is reported as 85.5% and the “%, ischemia/nonischemia” value was 69.00%. For the same compound, at human TSP1 [2], the IC50 is 15900 pM.
On to `CC[C@H](C)[C@@H]1NC(=O)[C@H](Cc2ccc3ccccc3c2)NC(=O)CSC[C@@H](C(N)=O)NC(=O)[C@H](C(C)C)NC(=O)[C@H](Cc2c[nH]c3ccccc23)NC(=O)[C@H](CCCCN)NC(=O)[C@H](C(C)C)NC(=O)[C@H](Cc2c[nH]c3ccccc23)NC(=O)[C@H](CC(N)=O)NC(=O)[C@H](CCCCN)NC(=O)CNC(=O)[C@H](CO)NC1=O` [Compound 43] ({CH2CO}-[2Nal]ISGKNWVKWVC-NH2; thioether N-12), for which, on human TSP1 [1], the Kd was determined as 130 pM. Moreover, in the assay with C57BL/6 mice, the “% change (vs. vehicle)” value amounted to 30.9% and the “%, ischemia/nonischemia” value worked out at 48.86%. Moreover, on human TSP1 [2], the IC50 was found to be 9200 pM.
Consider `CCCC[C@@H]1NC(=O)[C@H](Cc2c[nH]c3ccccc23)NC(=O)[C@H](CC(=O)O)NC(=O)[C@H](CCCNC(=N)N)NC(=O)CNC(=O)[C@H](CO)NC(=O)[C@H]([C@@H](C)CC)NC(=O)[C@H](Cc2ccc3ccccc3c2)NC(=O)CSC[C@@H](C(N)=O)NC(=O)[C@H](C(C)C)NC(=O)[C@H](Cc2c[nH]c3ccccc23)NC(=O)[C@H](CCCCN)NC1=O` [Compound 45] ({CH2CO}-[2Nal]ISGRDW[Nle]KWVC-NH2; thioether N-12), for which the Kd on human TSP1 [1] was found to be 130 pM. In the assay with C57BL/6 mice, the “% change (vs. vehicle)” value was 76.0% and the “%, ischemia/nonischemia” value was found to be 65.70%.
On to `CC[C@H](C)[C@@H]1NC(=O)[C@H](Cc2ccccc2)NC(=O)CSC[C@@H](C(N)=O)NC(=O)[C@H](C(C)C)NC(=O)[C@H](Cc2c[nH]c3ccccc23)NC(=O)[C@H](CCCCN)NC(=O)[C@H](C(C)C)NC(=O)[C@H](Cc2c[nH]c3ccccc23)NC(=O)[C@H](CC(N)=O)NC(=O)[C@H](CCCCN)NC(=O)CNC(=O)[C@H](CO)NC1=O` [Compound 7] ({CH2CO}-FISGKNWVKWVC-NH2; thioether N-12), for which the Kd on human TSP1 [1] came to 120 pM.
On human TSP1 [1], `CC(C)[C@@H]1NC(=O)[C@H](Cc2c[nH]c3ccccc23)NC(=O)[C@H](CCCCN)NC(=O)[C@H](C(C)C)NC(=O)[C@H](Cc2c[nH]c3ccccc23)NC(=O)[C@H](CC(N)=O)NC(=O)[C@H](CCCNC(=N)N)NC(=O)CNC(=O)[C@H](CO)NC(=O)[C@H](CCCNC(=N)N)NC(=O)[C@H](Cc2ccccc2)NC(=O)CSC[C@@H](C(N)=O)NC1=O` [Compound 6] ({CH2CO}-FRSGRNWVKWVC-NH2; thioether N-12) returned a dissociation constant Kd of 440 pM. The IC50 on human TSP1 [2] was 27300 pM.
For the compound `CC[C@H](C)[C@@H]1NC(=O)[C@H](Cc2ccc3ccccc3c2)NC(=O)CSC[C@@H](C(N)=O)NC(=O)[C@H](C(C)C)NC(=O)[C@H](Cc2c[nH]c3ccccc23)NC(=O)[C@H](CCCCN)NC(=O)[C@H](C(C)C)NC(=O)[C@H](Cc2c[nH]c3ccccc23)NC(=O)[C@H](CC(N)=O)NC(=O)[C@H](CO)NC(=O)CNC(=O)[C@H](CO)NC1=O` [Compound 44] ({CH2CO}-[2Nal]ISGSNWVKWVC-NH2; thioether N-12), in the assay on C57BL/6 mice, the “% change (vs. vehicle)” value is listed as 10.5% and the “%, ischemia/nonischemia” value was 41.25%. Moreover, the IC50 at human TSP1 [2] was 30300 pM.
`CC[C@H](C)[C@@H]1NC(=O)[C@H](Cc2ccc3ccccc3c2)NC(=O)CSC[C@@H](C(N)=O)NC(=O)[C@H](C(C)C)NC(=O)[C@H](Cc2c[nH]c3ccccc23)NC(=O)[C@H](CCCCN)NC(=O)[C@H](C(C)C)NC(=O)[C@H](Cc2c[nH]c3ccccc23)NC(=O)[C@H](CC(N)=O)NC(=O)[C@H](CCCNC(=N)N)NC(=O)CNC(=O)[C@H](CO)NC1=O` [Compound 24] ({CH2CO}-[2Nal]ISGRNWVKWVC-NH2; thioether N-12): the Kd at human TSP1 [1] turned out to be 120 pM. Also, in the assay on C57BL/6 mice, the “% change (vs. vehicle)” value worked out at 4.9% and the “%, ischemia/nonischemia” value is 41.20%.
On human TSP1 [1], `CC[C@H](C)[C@@H]1NC(=O)[C@H](Cc2ccc3ccccc3c2)NC(=O)CSC[C@@H](C(N)=O)NC(=O)[C@H](C(C)C)NC(=O)[C@H](Cc2c[nH]c3ccccc23)NC(=O)[C@H](CCCCN)NC(=O)[C@H](C(C)C)NC(=O)[C@H](Cc2c[nH]c3ccccc23)NC(=O)[C@H](CC(N)=O)NC(=O)[C@H](Cc2c[nH]cn2)NC(=O)CNC(=O)[C@H](CO)NC1=O` [Compound 42] ({CH2CO}-[2Nal]ISGHNWVKWVC-NH2; thioether N-12) registered a Kd of 440 pM. In addition, in the assay with C57BL/6 mice, the “% change (vs. vehicle)” value stood at 27.0% and the “%, ischemia/nonischemia” value is 47.40%.

These data come from patent publication US11149066B2, “Thrombospondin 1-binding peptide” (DAIICHI SANKYO COMPANY, LIMITED, priority 2016, dated 2021).
